In US20220185811A1, “FGFR4 KINASE INHIBITOR AND PREPARATION METHOD THEREFOR AND USE THEREOF” (SHOUYAO HOLDINGS (BEIJING) CO., LTD., priority 2019, published 2022):
Where two headings read alike, the source gives them in different places.

Tests used:
[1] = target: FGFR-4 kinase (Homo sapiens, UniProt P22455); assay: FGFR-4 kinase activity, homogeneous time-resolved fluorescence (HTRF) method; assay type: biochemical; settings: ATP 25 μM, FGFR-4 kinase 1 nM, read-out: FGFR4 IC50
Protocol: 1. In vitro determination of the protein activity of compounds: The FGFR-4 kinase activity detection platform was established by the homogeneous time-resolved fluorescence (HTRF) method, and the activity of the compound was determined. 1000 μM compounds were subjected to 3-fold gradient dilution in 100% DMSO 11 times (12 concentrations in total), 4 μL diluent from each concentration was added to 96 μL of reaction buffer (50 mM HEPES, pH 7.4, 5 mM MnCl2, 0.1 mM NaVO3, 0.001% Tween-20, 0.01% BAS, 1 mM DTT) and mixed well, as a 4* compound (final concentration of 0.017 nM-1000 nM) for later use. 2 * FGFR-4 kinase (final concentration of 1 nM) was formulated using reaction buffer and 4*substrate (ATP+TK peptide) (TK peptide, HTRF® KinEASETM-TK, purchased from Cisbio, TK peptide, final concentration of 1 μM, ATP final concentration of 25 μ M) was formulated using reaction buffer. 2.5 μL of 4*compound and then 5 μL of 2 * FGFR-4 kinase were added to a 384-well plate (OptiPlate-384, purchased from PerkinElmer), the mixture was mixed by centrifugation, and 2.5 μL of 4 * substrate mixture was added to start the reaction (total reaction volume of 10 µL). The 384-well plate was placed in an incubator 23° C. and stirred for 60 min before the reaction was stopped by the addition of 5 μL of Eu^3+cryptate-labeled anti-phosphotyrosine antibody (TRF® KinEASE™-TK, purchased from Cisbio) and 5 μL of Streptavidin-XL-665 (HTRF® KinEASE™-TK, purchased from Cisbio). After incubation in the incubator for 1 h, fluorescence values (excitation at 320 nm, detecting emitted light at 665 nm and 620 nm, and a ratio of the two as enzyme activity) were read on Envision (purchased from PerkinElmer). The enzyme activity of each compound was measured at 12 concentrations, and the ICso value of the compound was calculated using GraphPad Prism 5.0 software.
The FGFR-4 kinase activity detection platform was established by homogeneous time-resolved fluorescence (HTRF) method, and the activity of compound was determined. 1000 μM compounds were subjected to 3-fold gradient dilution in 100% DMSO 11 times (12 concentrations in total), 4 μL of diluent from each concentration was added to 96 μL of reaction buffer (50 mM HEPES, pH 7.4, 5 mM MnCl2, 0.1 mM NaVO3, 0.001% Tween-20, 0.01% BAS, 1 mM DTT) and mixed well, as a 4* compound (final concentration of 0.017 nM-1000 nM) for later use. 2 * FGFR-4 kinase (final concentration of 1 nM) was formulated using reaction buffer and 4*substrate (ATP+TK peptide)(TK peptide, HTRF® KinEASE™-TK, purchased from Cisbio, TK peptide, final concentration of 1 μM, ATP final concentration of 25 μM) was formulated using reaction buffer. 2.5 μL of 4 * compound and then 5 μL of 2 * FGFR-4 kinase were added to a 384-well plate (OptiPlate-384, purchased from PerkinElmer), the mixture was mixed by centrifugation, and 2.5 μL of 4 * substrate mixture was added to start the reaction (total reaction volume of 10 μL). The 384-well plate was placed in an incubator 23° C. and stirred for 60 min before the reaction was stopped by the addition of 5 μL of Eu^3+cryptate-labled anti-phosphotyrosine antibody (TRF® KinEASE™-TK, purchased from Cisbio) and 5 μL of Streptavidin-XL-665 (HTRF® KinEASE™-TK, purchased from Cisbio). After incubation in the incubator for 1 h, fluorescence values (excitation at 320 nm, detecting emitted light at 665 nm and 620 nm, and a ratio of the two as enzyme activity) were read on Envision (purchased from PerkinElmer). The enzyme activity of each compopund was measured at 12 concentrations, and the ICso value of the compound was calculated using GraphPad prism 5.0 software.

[2] = Pharmacokinetics in male SD rats, single intragastric administration; assay type: in vivo; settings: 5 mg/kg suspension, plasma; for AUC(0-inf) / Cmax / Tmax / half-life: rat, po
Protocol: (§1) Male SD rats (Beijing Vital River Laboratory Animal Technology Co., Ltd.) were divided into groups of 3 rats each. The rats were subjected to 5 mg/kg suspension of the test sample by single intragastric administration, respectively. Animals were fasted overnight prior to the experiment from 10 h before dosing to 4 h after dosing. Blood was collected 0.25, 0.5, 1, 2, 4, 6, 8, and 24 h after administration. After isoflurane anesthesia using a small animal anesthesia machine, 0.3 mL of whole blood samples was collected from the fundus venous plexus, placed in a heparin anticoagulant tube, and were centrifuged at 4° C., 4000 rpm for 5 min, plasma was transferred to the centrifuge tube, and stored at −80° C. until analysis. Samples in the plasma were extracted using protein precipitation and the extracts were analyzed by LC/MS/MS.
as §1, with “taken through” for “collected from”, “-80°” for “−80°”

[3] = system: Human hepatoma cells Hep3b; assay: Cell proliferation inhibition, Cell Titer-Glo; assay type: cell-based; settings: Hep3B, 72 h
Protocol: 2. Determination of cell proliferation activity of compounds:
Cell Titer-Glo ® detection reagent from Promega was used to establish the suspension cell proliferation inhibition screening method. Human hepatoma cells Hep3b (Xiehe Cell Research Center) were cultured in 25 cm^2 or 75 cm^2 plastic tissue culture flasks (Corning®) filled with MEM (Gibco®) medium supplemented with 10% fetal bovine serum (Hyclone®) under 37° C., 95% air and 5% CO2, and subcultured 2-3 times a week.
(§2) Hep3b cells were seeded in a 96-well cell culture plate (Corning®) at a density of 3×10^3 cells/well, […], and cultured under 37° C., 95% air, and 5% CO2. After 24 h the test compound was added: 10 mM compounds (dissolved in DMSO) were subjected to 3-fold gradient dilution in DMSO , […] of diluent from each concentration was added to […] of serum-free medium, and finally […] of compound diluted in the medium was added to the plate seeded with cells. The final concentration of DMSO in the cell culture medium was 0.1% and the final concentration of the test compound was 0.3 nM-[…]. The above cells were incubated for 3 days under 37° C.
After 3 days, the cell viability assay was performed by the Cell Titer-Glo (Promega) kit, and finally, the inhibitory concentration 50% of the compound on cell proliferation, i.e. the IC 50 value, was calculated by the GraphPad Prism 5.0 program.
as §2, with “DMSO,” for “DMSO ,”, “finally,” for “finally”, “of” for “of the”
After 3 days, the cell viability assay was performed by the Cell Titer-Glo (Promega) kit, and finally the inhibitory concentration 50% of the compound on cell proliferation, i.e. the IC 50 value, was calculated by the GraphPad Prism 5.0 program.

[4] = system: FGFR1-4; settings: background art; equally high-efficiency inhibition of FGFR1-4; cited from earlier work
[5] = first PK table, read-out: T1/2 (converted)
[6] = second PK table, read-out: T½ (converted)

Chain of FGFR-4 kinase (P22455 22-802): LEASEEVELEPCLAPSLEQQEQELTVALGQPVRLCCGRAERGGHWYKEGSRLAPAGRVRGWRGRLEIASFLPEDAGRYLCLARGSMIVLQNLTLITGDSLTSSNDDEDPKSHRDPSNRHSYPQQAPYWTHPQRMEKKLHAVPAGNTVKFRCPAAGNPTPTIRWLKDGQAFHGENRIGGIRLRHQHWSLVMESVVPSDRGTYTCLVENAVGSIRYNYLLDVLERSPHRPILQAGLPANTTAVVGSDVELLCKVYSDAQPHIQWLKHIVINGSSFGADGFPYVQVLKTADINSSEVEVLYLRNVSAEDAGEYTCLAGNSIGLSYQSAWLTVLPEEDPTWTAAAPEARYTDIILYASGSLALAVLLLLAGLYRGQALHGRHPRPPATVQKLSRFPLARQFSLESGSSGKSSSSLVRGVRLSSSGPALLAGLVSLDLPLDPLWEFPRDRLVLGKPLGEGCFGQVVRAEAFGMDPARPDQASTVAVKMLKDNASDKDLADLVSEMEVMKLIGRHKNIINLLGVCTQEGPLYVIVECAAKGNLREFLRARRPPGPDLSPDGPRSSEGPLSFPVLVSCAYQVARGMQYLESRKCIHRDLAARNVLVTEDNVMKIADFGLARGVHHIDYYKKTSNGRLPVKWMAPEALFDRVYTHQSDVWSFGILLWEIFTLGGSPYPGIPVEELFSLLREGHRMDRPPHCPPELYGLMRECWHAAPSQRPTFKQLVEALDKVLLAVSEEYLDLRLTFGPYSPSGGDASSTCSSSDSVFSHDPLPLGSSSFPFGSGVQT

C=CC(=O)N[C@H]1CCOC[C@H]1Nc1ncc2cc(-c3c(Cl)c(OC)cc(OC)c3Cl)ccc2n1 [Blu-554, reference compound]
IC50 ([1]; Table 1): 0.00749 µM | IC50 ([1]; Table 2): 0.00221 µM | T½ ([2]; second PK table): 1.64 h | AUC(0-inf) ([2]; first PK table): 1680 ng·h/mL | Cmax ([2]; first PK table): 362 ng/mL | Tmax ([2]; first PK table): 2.67 h | half-life [2, 5]: 1.64 h | IC50 ([3]; Table 1, 3 days incubation): 0.162 µM | IC50 ([3]; Table 2, 3 days incubation): 0.0661 µM

C=CC(=O)Nc1cc(-c2cc3c(cn2)cc(-c2c(Cl)c(OC)cc(OC)c2Cl)c2nccn23)c(OC)cc1N1C2CCC1COC2 [Example 6, N-(2-(3-oxa-8-azabicyclo[3 .2.1]octan-8-yl)-5-(4-(2,6-dichloro-3,5-dimethoxyphenyl)imidazo[1,2-a][1,6]naphthyridin-8-yl)-4-methoxyphenyl)acrylamide]
AUC(0-inf) ([2]; first PK table): 2560 ng·h/mL | Cmax ([2]; first PK table): 236 ng/mL | Tmax ([2]; first PK table): 6 h | half-life [2, 5]: 11.5 h | IC50 ([3]; Table 1, 3 days incubation): 0.0583 µM

C=CC(=O)Nc1cc(-c2cc3c(cn2)cc(-c2c(Cl)c(OC)cc(OC)c2Cl)c2nccn23)c(OC)cc1N1CCN(C2CC2)CC1 [Example 59]
IC50 ([1]; Table 2): 0.0011 µM | AUC(0-inf) ([2]; second PK table): 3940 ng·h/mL | Cmax ([2]; second PK table): 505 ng/mL | Tmax ([2]; second PK table): 2.67 h | half-life [2, 6]: 3.97 h | IC50 ([3]; Table 2, 3 days incubation): 0.0632 µM

C=CC(=O)Nc1cc(-c2cc3c(cn2)cc(-c2c(Cl)c(OC)cc(OC)c2Cl)c2nccn23)c(OC)cc1N1C[C@@H]2C[C@H]1CO2 [Example 61, N-(2-((1S,4S)-2-oxa-5-azabicyclo[2.2.1]heptan-5-yl)-5-(4-(2,6-dichloro-3,5-dimethoxyphenyl)imidazo[1,2-a][1,6]naphthyridin-8-yl)-4-methoxyphenyl)acrylamide]
IC50 ([1]; Table 2): 0.0017 µM | AUC(0-inf) ([2]; second PK table): 3050 ng·h/mL | Cmax ([2]; second PK table): 561 ng/mL | Tmax ([2]; second PK table): 1.17 h | half-life [2, 6]: 2.6 h | IC50 ([3]; Table 2, 3 days incubation): 0.121 µM

C=CC(=O)Nc1cc(-c2cc3c(cn2)cc(-c2c(Cl)c(OC)cc(OC)c2Cl)c2nccn23)c(OC)cc1N1CCC2(CCOC2)C1 (stereo not shown) [Example 62, N-(5-(4-(2,6-dichloro-3,5-dimethoxyphenyl)imidazo[1,2-a][1,6]naphthyridin-8-yl)-4-methoxy-2-(2-oxa-7-azaspiro[4, 4]nonan-7-yl)phenyl)acrylamide]
IC50 ([1]; Table 2): 0.0024 µM | AUC(0-inf) ([2]; second PK table): 1120 ng·h/mL | Cmax ([2]; second PK table): 175 ng/mL | Tmax ([2]; second PK table): 5.33 h | half-life [2, 6]: 4.93 h | IC50 ([3]; Table 2, 3 days incubation): 0.0438 µM

COc1cc(OC)cc(N(CCNC(C)C)c2ccc3ncc(-c4cnn(C)c4)nc3c2)c1 [JNJ-42756493]
IC50 on FGFR1-4 [4]: single-digit nanomolar level

C[C@@H](Oc1ccc2[nH]nc(/C=C/c3cnn(CCO)c3)c2c1)c1c(Cl)cncc1Cl [LY2874455]
IC50 on FGFR1-4 [4]: single-digit nanomolar level
